In the supplement of paper PMC10307832:

How the values were obtained:
Test in all cases: relative viability (nuclei count vs DMSO), 5 days (fraction); higher = more cells survive
NCI-H647 = tested on: NCI-H647
Summary of the method: (§1)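 Medians of duplicate plates are given as relative viability. That measure is the nuclei count in treated wells divided by the count in vehicle wells. Counts were taken on 4× images of lung cancer cell lines in 1536-well plates, 5 days after pin-tool dosing the day after seeding with one drug alone or a fixed anchor-drug dose plus five library-drug doses (not always all listed) in √10 steps.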

LCLC-103H = tested on: LCLC-103H
Summary of the method: as §1

NCI-H661 = tested on: NCI-H661
Summary of the method: as §1

NCI-H1651 = tested on: NCI-H1651
Summary of the method: as §1

EMC-BAC-2 = tested on: EMC-BAC-2
Summary of the method: as §1

NCI-H1734 = tested on: NCI-H1734
Summary of the method: as §1

HCC-78 = tested on: HCC-78
Summary of the method: as §1

201T = tested on: 201T
Summary of the method: as §1

EPLC-272H = tested on: EPLC-272H
Summary of the method: as §1

LOU-NH91 = tested on: LOU-NH91
Summary of the method: as §1

NCI-H23 = tested on: NCI-H23
Summary of the method: as §1

SK-LU-1 = tested on: SK-LU-1
Summary of the method: as §1

NCI-H1437 = tested on: NCI-H1437
Summary of the method: as §1

NCI-H2023 = tested on: NCI-H2023
Summary of the method: as §1

ABC-1 = tested on: ABC-1
Summary of the method: as §1

NCI-H2405 = tested on: NCI-H2405
Summary of the method: as §1

NCI-H1395 = tested on: NCI-H1395
Summary of the method: as §1

NCI-H1975 = tested on: NCI-H1975
Summary of the method: as §1

NCI-H1793 = tested on: NCI-H1793
Summary of the method: as §1

NCI-H1915 = tested on: NCI-H1915
Summary of the method: as §1

RERF-LC-KJ = tested on: RERF-LC-KJ
Summary of the method: as §1

UMC-11 = tested on: UMC-11
Summary of the method: as §1

NCI-H1792 = tested on: NCI-H1792
Summary of the method: as §1

## Cc1cnc(-c2cnc(NCCNc3ccc(C#N)cn3)nc2-c2ccc(Cl)cc2Cl)[nH]1 + CC(=O)c1c(C)c2cnc(Nc3ccc(N4CCNCC4)cn3)nc2n(C2CCCC2)c1=O [Palbociclib] (partner 0.5 µM)
NCI-H647; first compound 0.08 µM
  relative viability: 0.434
NCI-H647; first compound 0.253 µM
  relative viability: 0.303
NCI-H647; first compound 0.8 µM
  relative viability: 0.419
NCI-H647; first compound 2.53 µM
  relative viability: 0.393
LCLC-103H; first compound 0.08 µM
  relative viability: 0.516
LCLC-103H; first compound 0.253 µM
  relative viability: 0.475
LCLC-103H; first compound 0.8 µM
  relative viability: 0.426
LCLC-103H; first compound 2.53 µM
  relative viability: 0.507
NCI-H661; first compound 0.08 µM
  relative viability: 0.44
NCI-H661; first compound 0.253 µM
  relative viability: 0.433
NCI-H661; first compound 0.8 µM
  relative viability: 0.432
NCI-H661; first compound 2.53 µM
  relative viability: 0.506
NCI-H1651; first compound 0.08 µM
  relative viability: 0.58
NCI-H1651; first compound 0.253 µM
  relative viability: 0.468
NCI-H1651; first compound 0.8 µM
  relative viability: 0.504
NCI-H1651; first compound 2.53 µM
  relative viability: 0.549
EMC-BAC-2; first compound 0.08 µM
  relative viability: 0.544
EMC-BAC-2; first compound 0.253 µM
  relative viability: 0.523
EMC-BAC-2; first compound 0.8 µM
  relative viability: 0.543
EMC-BAC-2; first compound 2.53 µM
  relative viability: 0.512
NCI-H1734; first compound 0.08 µM
  relative viability: 0.403
NCI-H1734; first compound 0.253 µM
  relative viability: 0.342
NCI-H1734; first compound 0.8 µM
  relative viability: 0.391
NCI-H1734; first compound 2.53 µM
  relative viability: 0.189
HCC-78; first compound 0.08 µM
  relative viability: 0.463
HCC-78; first compound 0.253 µM
  relative viability: 0.441
HCC-78; first compound 0.8 µM
  relative viability: 0.466
HCC-78; first compound 2.53 µM
  relative viability: 0.467
201T; first compound 0.08 µM
  relative viability: 0.384
201T; first compound 0.8 µM
  relative viability: 0.362
201T; first compound 2.53 µM
  relative viability: 0.38
EPLC-272H; first compound 0.08 µM
  relative viability: 0.345
EPLC-272H; first compound 0.253 µM
  relative viability: 0.323
EPLC-272H; first compound 0.8 µM
  relative viability: 0.309
EPLC-272H; first compound 2.53 µM
  relative viability: 0.373
LOU-NH91; first compound 0.08 µM
  relative viability: 0.547
LOU-NH91; first compound 0.253 µM
  relative viability: 0.515
LOU-NH91; first compound 0.8 µM
  relative viability: 0.581
LOU-NH91; first compound 2.53 µM
  relative viability: 0.527
NCI-H23; first compound 0.08 µM
  relative viability: 0.378
NCI-H23; first compound 0.253 µM
  relative viability: 0.49
NCI-H23; first compound 0.8 µM
  relative viability: 0.515
NCI-H23; first compound 2.53 µM
  relative viability: 0.616
SK-LU-1; first compound 0.08 µM
  relative viability: 0.417
SK-LU-1; first compound 0.253 µM
  relative viability: 0.474
SK-LU-1; first compound 0.8 µM
  relative viability: 0.337
SK-LU-1; first compound 2.53 µM
  relative viability: 0.524
NCI-H1437; first compound 0.08 µM
  relative viability: 0.355
NCI-H1437; first compound 0.253 µM
  relative viability: 0.303
NCI-H1437; first compound 0.8 µM
  relative viability: 0.281
NCI-H1437; first compound 2.53 µM
  relative viability: 0.285
NCI-H2023; first compound 0.08 µM
  relative viability: 0.41
NCI-H2023; first compound 0.253 µM
  relative viability: 0.344
NCI-H2023; first compound 0.8 µM
  relative viability: 0.387
NCI-H2023; first compound 2.53 µM
  relative viability: 0.541
ABC-1; first compound 0.08 µM
  relative viability: 0.903
ABC-1; first compound 0.253 µM
  relative viability: 0.338
ABC-1; first compound 0.8 µM
  relative viability: 0.54
ABC-1; first compound 2.53 µM
  relative viability: 0.675
NCI-H2405; first compound 0.08 µM
  relative viability: 0.571
NCI-H2405; first compound 0.253 µM
  relative viability: 0.452
NCI-H2405; first compound 0.8 µM
  relative viability: 0.57
NCI-H2405; first compound 2.53 µM
  relative viability: 0.495
NCI-H1395; first compound 0.08 µM
  relative viability: 0.762
NCI-H1395; first compound 0.253 µM
  relative viability: 0.619
NCI-H1395; first compound 0.8 µM
  relative viability: 0.609
NCI-H1395; first compound 2.53 µM
  relative viability: 0.65
NCI-H1975; first compound 0.08 µM
  relative viability: 0.69
NCI-H1975; first compound 0.253 µM
  relative viability: 0.519
NCI-H1975; first compound 0.8 µM
  relative viability: 0.487
NCI-H1975; first compound 2.53 µM
  relative viability: 0.301
NCI-H1793; first compound 0.08 µM
  relative viability: 0.336
NCI-H1793; first compound 0.253 µM
  relative viability: 0.288
NCI-H1793; first compound 0.8 µM
  relative viability: 0.282
NCI-H1793; first compound 2.53 µM
  relative viability: 0.386
NCI-H1915; first compound 0.08 µM
  relative viability: 0.547
NCI-H1915; first compound 0.8 µM
  relative viability: 0.571
NCI-H1915; first compound 2.53 µM
  relative viability: 0.601
RERF-LC-KJ; first compound 0.08 µM
  relative viability: 1.18
RERF-LC-KJ; first compound 0.253 µM
  relative viability: 0.905
RERF-LC-KJ; first compound 0.8 µM
  relative viability: 1.01
RERF-LC-KJ; first compound 2.53 µM
  relative viability: 0.956
UMC-11; first compound 0.08 µM
  relative viability: 0.354
UMC-11; first compound 0.253 µM
  relative viability: 0.346
UMC-11; first compound 0.8 µM
  relative viability: 0.364
UMC-11; first compound 2.53 µM
  relative viability: 0.401
NCI-H1792; first compound 0.08 µM
  relative viability: 0.677
NCI-H1792; first compound 0.253 µM
  relative viability: 0.551
NCI-H1792; first compound 0.8 µM
  relative viability: 0.646
NCI-H1792; first compound 2.53 µM
  relative viability: 0.625
